pIC50: −log10 of the molar value.
Legend:
Format in all cases: functional, organism-based
Conditions in all cases: 3D7
Plasmodium falciparum [1] = assay: MMV: 3H-Hyoxanthine uptake assay; RPMI 1640 (Invitrogen cat#11875-093) with Sodium Bicarbonate (NaHCO3) […].
Plasmodium falciparum [2] = assay: MMV: Modified 3H-Hyoxanthine uptake assay; RPMI 1640 (Invitrogen cat#23400-013) without Sodium Bicarbonate (NaHCO3).
Plasmodium falciparum [3] = assay: MMV: 3H-Hyoxanthine uptake assay; 5% O2, 5% CO2 in N2.
Plasmodium falciparum [4] = assay: MMV: Modified 3H-Hyoxanthine uptake assay; 1% O2, 5% CO2 in N2.

CCc1c(C)c(=N)c2ccccc2n1C
pIC50 (Plasmodium falciparum [1]): 6.37 | pIC50 (Plasmodium falciparum [2]): 6.11 | pIC50 (Plasmodium falciparum [3]): 6.49 | pIC50 (Plasmodium falciparum [4]): 6.47

O=C(O)C1Cc2c([nH]c3ccccc23)C(c2ccc(Cl)cc2Cl)N1 (stereo unspecified)
pIC50 (Plasmodium falciparum [1]): < 6.00 | pIC50 (Plasmodium falciparum [2]): < 6.00 | pIC50 (Plasmodium falciparum [3]): < 6.00 | pIC50 (Plasmodium falciparum [4]): < 6.00

CCOC(=O)c1c(NC(=O)c2ccccc2)sc2c(O)c(CN(CC)CC)ccc12
pIC50 (Plasmodium falciparum [3]): < 6.00 | pIC50 (Plasmodium falciparum [4]): < 6.00

CN(C)c1ccc(C=Cc2nc(=O)c3ccccc3o2)cc1
pIC50 (Plasmodium falciparum [1]): 6.44 | pIC50 (Plasmodium falciparum [2]): 6.53 | pIC50 (Plasmodium falciparum [3]): < 6.30 | pIC50 (Plasmodium falciparum [4]): < 6.30

COc1ccc(-c2nc3cc(Cc4ccc5[nH]c(-c6ccc(OC)cc6)nc5c4)ccc3[nH]2)cc1
pIC50 (Plasmodium falciparum [1]): < 6.00 | pIC50 (Plasmodium falciparum [2]): < 6.00 | pIC50 (Plasmodium falciparum [3]): < 6.00 | pIC50 (Plasmodium falciparum [4]): < 6.00

CCN1CCCC1CNc1[nH]cnc2c3cc(Cl)ccc3nc1-2 (stereo unspecified)
pIC50 (Plasmodium falciparum [1]): < 6.00 | pIC50 (Plasmodium falciparum [2]): < 6.00 | pIC50 (Plasmodium falciparum [3]): < 6.00 | pIC50 (Plasmodium falciparum [4]): < 6.00

Cc1ccc(N2C(=O)C3C(C2=O)C2(c4ccccc4)C(=O)C3(c3ccccc3)C(c3ccccc3)=C2c2ccccc2)cc1 (stereo unspecified)
pIC50 (Plasmodium falciparum [1]): < 6.00 | pIC50 (Plasmodium falciparum [2]): < 6.00 | pIC50 (Plasmodium falciparum [3]): < 6.00 | pIC50 (Plasmodium falciparum [4]): < 6.00

Cc1cc(Nc2ccc(Cl)cc2)n2nc(C(F)(F)F)nc2n1
pIC50 (Plasmodium falciparum [1]): 6.95 | pIC50 (Plasmodium falciparum [2]): 6.77 | pIC50 (Plasmodium falciparum [3]): 6.46 | pIC50 (Plasmodium falciparum [4]): 7.15

CCC(c1ccccc1)c1nn2c(-c3cccs3)nnc2s1 (stereo unspecified)
pIC50 (Plasmodium falciparum [1]): 6.82 | pIC50 (Plasmodium falciparum [2]): 6.74 | pIC50 (Plasmodium falciparum [3]): 6.38 | pIC50 (Plasmodium falciparum [4]): 7.18

COc1cccc(NC(=O)[C@H](C(C)C)n2c(=O)[nH]c3ccccc3c2=O)c1
pIC50 (Plasmodium falciparum [1]): 6.70 | pIC50 (Plasmodium falciparum [2]): 6.46 | pIC50 (Plasmodium falciparum [3]): 6.67 | pIC50 (Plasmodium falciparum [4]): 6.81

COc1ccc2c(c1)OC(O)(C(F)(F)C(F)(F)F)CC2=O (stereo unspecified)
pIC50 (Plasmodium falciparum [1]): 6.61 | pIC50 (Plasmodium falciparum [2]): 6.69 | pIC50 (Plasmodium falciparum [3]): 6.35 | pIC50 (Plasmodium falciparum [4]): 6.15

CCOC(=O)c1c(C)n(-c2ccc(Cl)cc2)c2ccc(OC(=O)C=Cc3ccccc3)cc12
pIC50 (Plasmodium falciparum [1]): < 6.00 | pIC50 (Plasmodium falciparum [2]): < 6.00 | pIC50 (Plasmodium falciparum [3]): < 6.00 | pIC50 (Plasmodium falciparum [4]): < 6.00

CCN(CC)CCNc1ccnc2cc(Cl)ccc12
pIC50 (Plasmodium falciparum [1]): 7.34 | pIC50 (Plasmodium falciparum [2]): 7.03 | pIC50 (Plasmodium falciparum [3]): 7.40 | pIC50 (Plasmodium falciparum [4]): 7.74

CCOC(=O)C1=C(c2ccccc2)N=c2sc(=Cc3cc(C)n(-c4ccc(F)cc4)c3C)c(=O)n2C1c1cccc(OC)c1OC (stereo unspecified)
pIC50 (Plasmodium falciparum [1]): < 6.00 | pIC50 (Plasmodium falciparum [2]): < 6.00 | pIC50 (Plasmodium falciparum [3]): < 6.00 | pIC50 (Plasmodium falciparum [4]): < 6.00

CCC1(C)CC(CCNCc2ccccc2O)(c2ccc(C)cc2)CCO1 (stereo unspecified)
pIC50 (Plasmodium falciparum [1]): 6.58 | pIC50 (Plasmodium falciparum [2]): 6.56 | pIC50 (Plasmodium falciparum [3]): 6.27 | pIC50 (Plasmodium falciparum [4]): 6.63

C=CC12CCN(CC1)C(C(O)c1ccnc3ccc(OC)cc13)C2 (stereo unspecified)
pIC50 (Plasmodium falciparum [1]): 7.68 | pIC50 (Plasmodium falciparum [2]): 7.40

Cc1ccc(-c2cc3c(nn2)-c2ccccc2C3=O)cc1
pIC50 (Plasmodium falciparum [1]): < 6.30 | pIC50 (Plasmodium falciparum [2]): < 6.30 | pIC50 (Plasmodium falciparum [3]): < 6.30 | pIC50 (Plasmodium falciparum [4]): < 6.30

CC1CN(C(=O)c2sc3ccccc3c2Cl)CC(C)O1 (stereo unspecified)
pIC50 (Plasmodium falciparum [1]): 7.14 | pIC50 (Plasmodium falciparum [2]): 7.15 | pIC50 (Plasmodium falciparum [3]): 7.10 | pIC50 (Plasmodium falciparum [4]): 7.00

CCOC(=O)c1cnc2ccc(CC)cc2c1O
pIC50 (Plasmodium falciparum [1]): 6.52 | pIC50 (Plasmodium falciparum [2]): 6.39 | pIC50 (Plasmodium falciparum [3]): < 6.00 | pIC50 (Plasmodium falciparum [4]): < 6.00

Oc1ccccc1CNCC12CC3CC(CC(C3)C1)C2
pIC50 (Plasmodium falciparum [1]): 6.98 | pIC50 (Plasmodium falciparum [2]): 6.92 | pIC50 (Plasmodium falciparum [3]): 6.87 | pIC50 (Plasmodium falciparum [4]): 7.20

CCOC(=O)c1cnc2c(C)cc(C)cc2c1Nc1ccc(OC)c(OC)c1
pIC50 (Plasmodium falciparum [1]): < 5.70 | pIC50 (Plasmodium falciparum [2]): < 5.70 | pIC50 (Plasmodium falciparum [3]): < 6.00 | pIC50 (Plasmodium falciparum [4]): < 6.00

Cc1cc(C=C2SC(=Nc3ccccc3)N(C3CCCC3)C2=O)c(C)n1-c1ccc(Cl)cc1
pIC50 (Plasmodium falciparum [1]): < 6.00 | pIC50 (Plasmodium falciparum [2]): < 6.00 | pIC50 (Plasmodium falciparum [3]): < 6.00 | pIC50 (Plasmodium falciparum [4]): < 6.00

Cc1ccc(-c2cc3nc4c(c(O)n3n2)CCCC4)cc1
pIC50 (Plasmodium falciparum [1]): 6.05 | pIC50 (Plasmodium falciparum [2]): 5.90 | pIC50 (Plasmodium falciparum [3]): < 6.00 | pIC50 (Plasmodium falciparum [4]): < 6.00

CCCN(CCC)CC(O)COc1ccccc1C(=O)Nc1ccccc1 (stereo unspecified)
pIC50 (Plasmodium falciparum [1]): 6.50 | pIC50 (Plasmodium falciparum [2]): 6.46 | pIC50 (Plasmodium falciparum [3]): 6.55 | pIC50 (Plasmodium falciparum [4]): 6.77

CCN(CC)CCNc1ncnc2c1[nH]c1ccc(Cl)cc12
pIC50 (Plasmodium falciparum [1]): 6.49 | pIC50 (Plasmodium falciparum [2]): 6.07 | pIC50 (Plasmodium falciparum [3]): 6.50 | pIC50 (Plasmodium falciparum [4]): 6.58

Cc1cccc(Nc2nc(N)c3ccccc3n2)c1
pIC50 (Plasmodium falciparum [1]): 6.55 | pIC50 (Plasmodium falciparum [2]): 6.48 | pIC50 (Plasmodium falciparum [3]): 6.52 | pIC50 (Plasmodium falciparum [4]): 6.64

COc1cccc(C=Cc2nc(=O)c3ccccc3o2)c1OC
pIC50 (Plasmodium falciparum [1]): < 6.30 | pIC50 (Plasmodium falciparum [2]): < 6.30 | pIC50 (Plasmodium falciparum [3]): < 6.30 | pIC50 (Plasmodium falciparum [4]): < 6.30

COc1ccc(-n2ccnc2SCC(=O)Nc2cc(C)ccc2C)c(OC)c1
pIC50 (Plasmodium falciparum [1]): < 6.00 | pIC50 (Plasmodium falciparum [2]): < 6.00 | pIC50 (Plasmodium falciparum [3]): 6.10 | pIC50 (Plasmodium falciparum [4]): 6.37

COc1ccc(Br)cc1C1Nc2ccc3ccccc3c2C2=C1C(=O)CC(c1ccccc1)C2 (stereo unspecified)
pIC50 (Plasmodium falciparum [1]): 6.11 | pIC50 (Plasmodium falciparum [2]): 6.15 | pIC50 (Plasmodium falciparum [3]): < 6.00 | pIC50 (Plasmodium falciparum [4]): < 6.00

CCOC(=O)c1cn(CC)c2cc(N(C)CCc3ccc(OC)c(OC)c3)c(F)cc2c1=O
pIC50 (Plasmodium falciparum [3]): 6.46 | pIC50 (Plasmodium falciparum [4]): 7.07

COc1ccc(-c2nc(NC(=O)CS(=O)(=O)c3ccc(F)cc3)sc2C)cc1
pIC50 (Plasmodium falciparum [1]): 6.72 | pIC50 (Plasmodium falciparum [2]): 6.33

CNCCCNc1ccnc2cc(Cl)ccc12
pIC50 (Plasmodium falciparum [1]): 7.40 | pIC50 (Plasmodium falciparum [2]): 6.81 | pIC50 (Plasmodium falciparum [3]): 7.36 | pIC50 (Plasmodium falciparum [4]): 7.64

COc1ccc2c(=O)cc(C(Cl)(Cl)Cl)oc2c1
pIC50 (Plasmodium falciparum [1]): 6.03 | pIC50 (Plasmodium falciparum [2]): 6.10 | pIC50 (Plasmodium falciparum [3]): < 6.00 | pIC50 (Plasmodium falciparum [4]): < 6.00

Cc1ccc(Nc2nc(NCCO)c3ccccc3n2)cc1C
pIC50 (Plasmodium falciparum [1]): 6.73 | pIC50 (Plasmodium falciparum [2]): 6.49 | pIC50 (Plasmodium falciparum [3]): 6.62 | pIC50 (Plasmodium falciparum [4]): 6.66

Cc1cc(C)cc(Nc2cc(C)nc3nc(C(F)(F)F)nn23)c1
pIC50 (Plasmodium falciparum [1]): 7.23 | pIC50 (Plasmodium falciparum [2]): 6.88 | pIC50 (Plasmodium falciparum [3]): 7.09 | pIC50 (Plasmodium falciparum [4]): 7.33

CCCCCC(=O)N1c2ccccc2N=C2CC(c3ccc(OC)c(OC)c3)CC(O)=C2C1c1ccc(C(F)(F)F)cc1 (stereo unspecified)
pIC50 (Plasmodium falciparum [1]): 6.89 | pIC50 (Plasmodium falciparum [2]): 6.84

Cc1cc(NCCN2CCCCC2)c2ccc3ccccc3c2n1
pIC50 (Plasmodium falciparum [1]): 6.90 | pIC50 (Plasmodium falciparum [2]): 6.66 | pIC50 (Plasmodium falciparum [3]): 6.31 | pIC50 (Plasmodium falciparum [4]): 6.88

CCN1CCN(Cc2ccc(NC(=O)c3cc4ccc5cccnc5c4[nH]3)cc2)CC1
pIC50 (Plasmodium falciparum [1]): 6.24 | pIC50 (Plasmodium falciparum [2]): 6.17 | pIC50 (Plasmodium falciparum [3]): 6.37 | pIC50 (Plasmodium falciparum [4]): 6.30

COc1ccc(C(=O)Nc2nonc2-c2ccc(OC)c(OC)c2)cc1Cl
pIC50 (Plasmodium falciparum [1]): < 6.00 | pIC50 (Plasmodium falciparum [2]): < 6.00 | pIC50 (Plasmodium falciparum [3]): < 6.00 | pIC50 (Plasmodium falciparum [4]): < 6.00

CCCCCCOC(=O)C1=C(C)NC(=O)NC1c1ccccc1F (stereo unspecified)
pIC50 (Plasmodium falciparum [1]): < 6.00 | pIC50 (Plasmodium falciparum [2]): < 6.00 | pIC50 (Plasmodium falciparum [3]): < 6.00 | pIC50 (Plasmodium falciparum [4]): < 6.00

CN1CCN(c2ccc(Nc3c4ccccc4nc4ccccc34)cc2)CC1
pIC50 (Plasmodium falciparum [1]): 7.01 | pIC50 (Plasmodium falciparum [2]): 6.57 | pIC50 (Plasmodium falciparum [3]): 6.93 | pIC50 (Plasmodium falciparum [4]): 7.12

COc1ccc(C(C)=O)cc1N1C(=O)C2C(C1=O)C1(c3ccccc3)C(=O)C2(c2ccccc2)C(c2ccc(C)cc2)=C1c1ccc(C)cc1 (stereo unspecified)
pIC50 (Plasmodium falciparum [1]): < 6.00 | pIC50 (Plasmodium falciparum [2]): < 6.00 | pIC50 (Plasmodium falciparum [3]): < 6.00 | pIC50 (Plasmodium falciparum [4]): < 6.00

COc1ccccc1CNC(=O)CCn1c(=O)[nH]c2ccsc2c1=O
pIC50 (Plasmodium falciparum [1]): 6.44 | pIC50 (Plasmodium falciparum [2]): 6.36

c1ccc(Cn2c(N=Nc3c(Nc4ccccc4)ccc4ccccc34)nc3ccccc32)cc1
pIC50 (Plasmodium falciparum [1]): 6.90 | pIC50 (Plasmodium falciparum [2]): 7.19 | pIC50 (Plasmodium falciparum [3]): < 6.30 | pIC50 (Plasmodium falciparum [4]): < 6.30

COc1ccc(C=C2SC(=N)N(c3ccccc3OC)C2=O)cc1
pIC50 (Plasmodium falciparum [2]): 6.78 | pIC50 (Plasmodium falciparum [3]): 6.27

CCn1c(CN2CCN(Cc3ccccc3)CC2)nc2cc(NC(=O)c3cccs3)ccc21
pIC50 (Plasmodium falciparum [1]): 6.76 | pIC50 (Plasmodium falciparum [2]): 6.73

CCCc1cc(O)c2c3c(c(=O)oc2c1)CN(C)CC3
pIC50 (Plasmodium falciparum [3]): < 6.00 | pIC50 (Plasmodium falciparum [4]): < 6.00

COc1ccc(-c2c(C)nn3c(N)c(C#N)cnc23)cc1OC
pIC50 (Plasmodium falciparum [1]): 6.48 | pIC50 (Plasmodium falciparum [2]): 6.34

Cc1cc(C)c2c(c1)OCN(Cc1ccccc1Cl)C2
pIC50 (Plasmodium falciparum [1]): 6.56 | pIC50 (Plasmodium falciparum [2]): 6.44

O=C(NCC(c1ccsc1)N1CCCCCC1)c1ccc(C(F)(F)F)cc1 (stereo unspecified)
pIC50 (Plasmodium falciparum [1]): 6.37 | pIC50 (Plasmodium falciparum [2]): 5.95

From ChEMBL document CHEMBL3301550, “MMV Mararia Box screening against P. falciparum asexual stage parasites under hypoxia and bicarbonate modified culture conditions”
